Source: article PMC4713475, “In Vivo Differences between Two Optical Isomers of Radioiodinated o-iodo-trans-decalinvesamicol for Use as a Radioligand for the Vesicular Acetylcholine Transporter” (PLoS ONE, 2016)

Assays:
VAChT [1] = biological target: T1, VAChT (Rattus norvegicus, UniProt Q62666); assay: VAChT in vitro competitive binding with (-)-[3H]vesamicol in rat brain preparations; conditions: rat brain preparations, (-)-[3H]vesamicol, 200 nM DTG to mask sigma receptors, 37°C 60 min; mean ± SD; read-out: Ki VAChT
T1 construct: The rats were sacrificed 60 minutes after injection and their brains collected; from tissue; host or cells: brain of live male Sprague-Dawley rats (in vivo)
T1 sequence (Q62666 1-530): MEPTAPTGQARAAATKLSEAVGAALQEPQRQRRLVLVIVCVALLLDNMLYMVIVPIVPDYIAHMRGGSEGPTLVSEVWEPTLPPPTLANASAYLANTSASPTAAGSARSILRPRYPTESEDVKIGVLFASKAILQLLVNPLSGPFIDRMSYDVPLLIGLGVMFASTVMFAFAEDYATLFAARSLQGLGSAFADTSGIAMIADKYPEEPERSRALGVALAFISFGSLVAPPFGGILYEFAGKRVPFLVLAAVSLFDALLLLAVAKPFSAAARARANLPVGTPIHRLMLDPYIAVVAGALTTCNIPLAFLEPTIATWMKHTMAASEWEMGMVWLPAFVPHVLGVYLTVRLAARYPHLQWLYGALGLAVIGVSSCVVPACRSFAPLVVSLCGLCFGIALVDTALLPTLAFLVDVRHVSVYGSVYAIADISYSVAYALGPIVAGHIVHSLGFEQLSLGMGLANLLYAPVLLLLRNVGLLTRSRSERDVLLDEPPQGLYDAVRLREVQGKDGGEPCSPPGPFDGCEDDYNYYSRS

VAChT [2] = biological target: T1, VAChT; assay: Ex vivo autoradiography of rat brain; format: in vivo; conditions: 60 min post-injection; for regional brain distribution by ex vivo autoradiography: tracer alone
Experimental: Four SD rats were injected intravenously with either (-)-[^125I]OIDV or (+)-[^125I]OIDV (0.4 mL, 1.85 MBq) either alone as a control or with 0.25 μmol (+/–)-vesamicol via the tail vein. At 60 min post-injection, the rats were sacrificed by exsanguination, and perfused via the left ventricle with saline solution (50 mL) followed by 4% paraformaldehyde (pH 7.4, 0.1 M phosphate buffer, 100 mL). Whole brains were removed, frozen in embedding medium at -78°C and cut into 20 μm sections at -25°C using a cryostat microtome. The sections were apposed to an imaging plate (Fujifilm, BAS-IP SR 2025) for eight days. The imaging plates were scanned by a BAS-5000 phosphor image reader (Fujifilm). Ex vivo autoradiograhy of (-)-[^123I]OIDV(0.4 mL, 111 MBq) was performed by the same method of two [^125I]OIDV isomers.

VAChT [3] = biological target: T1, VAChT; assay: In vivo blocking study of regional brain uptake; conditions: rats, 60 min
Experimental: The rats were sacrificed 60 minutes after injection and their brains collected. The cortex, striatum, cerebellum, and the remainder of the brain were dissected and separated, and their weights and radioactivity measured.
(§1) The results of biodistribution study were statistically analyzed using one-way ANOVA (non-parametric) followed by a Mann Whitney test. Statistical comparisons for the in vivo blocking experiments were performed using one-way ANOVA (non-parametric), Kruskal-Wallis test, and Dunn’s Multiple Comparison test.

[4] = In vivo biodistribution study in rats; set-up: species or system rat; conditions: for Biodistribution, Blood / Biodistribution, Cerebellum / Biodistribution, Cortex / Biodistribution, Heart / Biodistribution, Kidney / Biodistribution, Liver / Biodistribution, Lung / Biodistribution, Pancreas / Biodistribution, Rest brain / Biodistribution, Small intestine / Biodistribution, Spleen / Biodistribution, Stomach / Biodistribution, Striatum: n = 4, mean ± SD
Experimental: Three groups of male Sprague-Dawley (SD) rats (n = 4 in each group), weighing 250–300 g, were anesthetized with ether and given an intravenous (i.v.) injection of (-)-[^125I]OIDV or (+)-[^125I]OIDV (0.4 mL, 185 kBq). At 2, 30, and 60 min post-injection, the animals were sacrificed by decapitation under ether anesthesia. The organs of interest were dissected, weighed, and the radioactivity levels were measured in a gamma scintillation counter (AccuFLEX γ7010, Aloka, Tokyo). The degree of accumulation of radiotracer was expressed as a percentage of the injected dose per gram of tissue (% ID/g).
as §1

σ-1 receptor = σ-1 receptor (Rattus norvegicus, UniProt Q9R0C9); assay: σ-1 receptor competitive binding with (+)-[3H]pentazocine in rat cerebrum preparations
Experimental: The incubated samples were treated in the same manner as described for the VAChT binding assays, except that Whatman GF/B glass fiber filters were used.
(§2) Ki values were calculated using Graphpad Prism (GraphPad Software, Inc. San Diego, USA).

σ-2 receptor = biological target: T2, σ-2 receptor (Rattus norvegicus, UniProt Q5U3Y7); assay: σ-2 receptor competitive binding with [3H]DTG in rat liver preparations; conditions: read-out: Ki σ-2
T2 construct: Rat liver preparations (about 100 μg protein) were incubated in quadruplicate; from tissue; host or cells: liver of male Sprague-Dawley rats
T2 sequence (Q5U3Y7 1-176): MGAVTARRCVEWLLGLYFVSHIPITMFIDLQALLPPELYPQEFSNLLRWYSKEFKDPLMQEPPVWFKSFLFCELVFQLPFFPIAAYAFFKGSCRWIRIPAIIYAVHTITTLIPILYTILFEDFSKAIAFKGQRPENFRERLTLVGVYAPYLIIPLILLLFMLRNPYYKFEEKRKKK
Experimental: Rat brain and liver tissue preparations were prepared from dissected brains (not including the cerebellum) and livers from male Sprague-Dawley rats (250–300 g), as previously described[34].
The incubated samples were treated in the same manner as described for the σ-1 receptor binding assay.
as §2

Sequence of σ-1 receptor (Q9R0C9 whole entry): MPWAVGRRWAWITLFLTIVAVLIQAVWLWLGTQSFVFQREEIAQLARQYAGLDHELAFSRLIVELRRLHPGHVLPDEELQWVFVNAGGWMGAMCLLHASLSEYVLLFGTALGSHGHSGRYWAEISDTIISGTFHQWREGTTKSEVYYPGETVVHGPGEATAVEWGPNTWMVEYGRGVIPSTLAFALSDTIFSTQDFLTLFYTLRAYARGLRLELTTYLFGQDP

## OC1C[C@@H]2CCCC[C@H]2CC1N1CCC(c2ccccc2I)CC1 (single isomer, unassigned; (-)) [(-)-[^125I]OIDV]
VAChT [1]
  Ki: 22.1 nM

## OC1C[C@@H]2CCCC[C@H]2CC1N1CCC(c2ccccc2[125I])CC1 (single isomer, unassigned; (-)) [(-)-[^125I]OIDV]
VAChT [2]; 0.25 μmol vesamicol co-injected
  brain accumulation by ex vivo autoradiography with co-injection of vesamicol: remarkably decreased
VAChT [2]
  regional brain distribution by ex vivo autoradiography: distributed in characteristically VAChT-rich regions
VAChT [3]; 0.25 μmol (+)-3-PPP co-injected i.v., all four brain regions
  regional brain uptake with co-injection of (+)-3-PPP: 72–82 % of control
VAChT [3]; 0.25 μmol (+)-pentazocine co-injected i.v., all four brain regions
  regional brain uptake with co-injection of (+)-pentazocine: 72–82 % of control
VAChT [3]; 0.25 μmol (+/-)-vesamicol co-injected i.v., all four brain regions
  regional brain uptake with co-injection of vesamicol: approximately 25 % of control
VAChT [3]; 0.250 μmol vesamicol co-injected
  decrease in brain uptake by vesamicol: 71–73%
[4]; at 30 min and 60 min post-injection
  striatum distribution relative to (+)-[125I]OIDV: 1.4–1.6 times
[4]; i.v.
  retention of accumulated radioactivity in brain: greater than 60 min
[4]; i.v., 2 min post-injection
  Biodistribution, Blood: 0.13 ± 0.01 % ID/g
  Biodistribution, Cerebellum: 0.53 ± 0.04 % ID/g
  Biodistribution, Cortex: 0.55 ± 0.10 % ID/g
  Biodistribution, Heart: 2.34 ± 0.23 % ID/g
  Biodistribution, Kidney: 2.84 ± 0.63 % ID/g
  Biodistribution, Liver: 2.07 ± 0.63 % ID/g
  Biodistribution, Lung: 5.84 ± 0.44 % ID/g
  Biodistribution, Pancreas: 2.66 ± 0.40 % ID/g
  Biodistribution, Rest brain: 0.48 ± 0.07 % ID/g
  Biodistribution, Small intestine: 0.89 ± 0.12 % ID/g
  Biodistribution, Spleen: 0.94 ± 0.40 % ID/g
  Biodistribution, Stomach: 0.18 ± 0.09 % ID/g
  Biodistribution, Striatum: 0.47 ± 0.10 % ID/g
[4]; i.v., 30 min post-injection
  Biodistribution, Blood: 0.05 ± 0.01 % ID/g
  Biodistribution, Cerebellum: 0.55 ± 0.11 % ID/g
  Biodistribution, Cortex: 0.62 ± 0.10 % ID/g
  Biodistribution, Heart: 0.44 ± 0.06 % ID/g
  Biodistribution, Kidney: 2.35 ± 0.38 % ID/g
  Biodistribution, Liver: 2.60 ± 0.75 % ID/g
  Biodistribution, Lung: 2.51 ± 0.90 % ID/g
  Biodistribution, Pancreas: 4.67 ± 0.58 % ID/g
  Biodistribution, Rest brain: 0.55 ± 0.09 % ID/g
  Biodistribution, Small intestine: 1.45 ± 0.50 % ID/g
  Biodistribution, Spleen: 1.37 ± 0.27 % ID/g
  Biodistribution, Stomach: 0.22 ± 0.23 % ID/g
  Biodistribution, Striatum: 0.63 ± 0.09 % ID/g
[4]; i.v., 60 min post-injection
  Biodistribution, Blood: 0.04 ± 0.01 % ID/g
  Biodistribution, Cerebellum: 0.41 ± 0.07 % ID/g
  Biodistribution, Cortex: 0.51 ± 0.06^! % ID/g
  Biodistribution, Heart: 0.25 ± 0.05 % ID/g
  Biodistribution, Kidney: 2.21 ± 0.17 % ID/g
  Biodistribution, Liver: 2.19 ± 0.17 % ID/g
  Biodistribution, Lung: 1.54 ± 0.41 % ID/g
  Biodistribution, Pancreas: 4.21 ± 0.20 % ID/g
  Biodistribution, Rest brain: 0.47 ± 0.06^+ % ID/g
  Biodistribution, Small intestine: 1.85 ± 0.14 % ID/g
  Biodistribution, Spleen: 0.91 ± 0.08 % ID/g
  Biodistribution, Stomach: 0.24 ± 0.22 % ID/g
  Biodistribution, Striatum: 0.50 ± 0.07^$ % ID/g
[4]; i.v., all brain regions
  time post-injection of highest accumulation in the brain: 30 min

## O[C@H]1C[C@@H]2CCCC[C@H]2C[C@@H]1N1CCC(c2ccccc2I)CC1 [(+)-OIDV, (2S,3S,4aS,8aS)-3-(4-(2-iodophenyl)piperidin-1-yl)decahydronaphthalen-2-ol]
σ-1 receptor
  Ki: 316 ± 26.3 nM
σ-2 receptor
  Ki: 101 ± 18.8 nM

## OC1CC2CCCCC2CC1N1CCC(c2ccccc2[123I])CC1 (single isomer, unassigned; (-)) [(-)-[^123I]OIDV]
VAChT [2]
  regional brain distribution by ex vivo autoradiography: same regional distribution as that of (-)-[^125I]OIDV
